The values below are quoted from earlier work in PMC8216436, “Molecular docking and statistical optimization of taurocholate-stabilized galactose anchored bilosomes for the enhancement of sofosbuvir absorption and hepatic relative targeting efficiency” (Drug Delivery, 2020).

What is called solubility is the concentration that dissolves in the medium under given conditions. As a reminder, the pKa is the negative logarithm of the acid dissociation constant.

In one series the test system is P-glycoprotein (P-gp). Also noted: method as in Shen et al., 2019. The conditions noted are these: efflux from GIT membrane cells and hepatocytes; ref Shen et al., 2019.
The conditions of series [1]: 2017.
The mark [2] stands for this setting: oral, ref Rodríguez-Torres, 2013, Kirby et al., 2015, Cuenca-Lopez et al.

The structures appear in SMILES notation. Where only a bound is given, the exact number is not on record here.

Take `CC(C)OC(=O)[C@H](C)N[P@](=O)(OC[C@H]1O[C@@H](n2ccc(=O)[nH]c2=O)[C@](C)(F)[C@@H]1O)Oc1ccccc1` [Sofosbuvir]: for the setting “high solubility and low permeability, ref Kirby et al., 2015”, the “biopharmaceutics classification system class” value was “class III”. Under “ref Amidon et al., 1995”, the partition coefficient entry was “about 1.6” and the solubility was at least 2000 µg/mL. For the same compound, where the note is “weak acid, ref Amidon et al., 1995”, the pKa is on record as 9.6. The “P-glycoprotein (P-gp) substrate” value in the series on P-glycoprotein (P-gp) is listed as “substrate”. Besides, in series [1] (setting [2]), the “administered dose absorbed through the portal circulation” value is reported as 36.4%, the “hepatic availability of the administered dose” value was 26.94% and the hepatic extraction is on record as 74%. In addition, in series [1] (ref Bhatia et al., 2014, Reznik & Ashby), the volume of distribution was 127 L.
